Measured values reported in the supplement of paper PMC10307832.

Tests used:
Assay in all cases: relative viability (nuclei count vs DMSO), 5 days (fraction); higher = more cells survive
[1] = compound: CC(=O)c1c(C)c2cnc(Nc3ccc(N4CCNCC4)cn3)nc2n(C2CCCC2)c1=O [Palbociclib] + CS(=O)(=O)N1CCN(Cc2cc3nc(-c4cccc5[nH]ncc45)nc(N4CCOCC4)c3s2)CC1 [Pictilisib] (partner 1 µM)
How it was run: (§1)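 Values are medians from duplicate plates. Each reflects relative viability, defined as the nuclei count of treated wells over that of vehicle wells. Lung cancer cell lines in 1536-well plates were pin-tool dosed one day after seeding with one drug alone or with a fixed anchor-drug dose plus five library-drug doses (not always all listed) in √10 steps, then fixed, stained and imaged at 4× after 5 days.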

[2] = compound: CC(=O)c1c(C)c2cnc(Nc3ccc(N4CCNCC4)cn3)nc2n(C2CCCC2)c1=O [Palbociclib] + Nc1nc2[nH]cc(CCc3ccc(C(=O)N[C@@H](CCC(=O)O)C(=O)O)cc3)c2c(=O)[nH]1 [Pemetrexed] (partner 0.2 µM)
How it was run: as §1

[3] = compound: CC(=O)c1c(C)c2cnc(Nc3ccc(N4CCNCC4)cn3)nc2n(C2CCCC2)c1=O [Palbociclib] + CC(C)C[C@H](NC(=O)[C@H](Cc1ccccc1)NC(=O)c1cnccn1)B(O)O [Bortezomib] (partner 0.002 µM)
How it was run: as §1

[4] = compound: CC(=O)c1c(C)c2cnc(Nc3ccc(N4CCNCC4)cn3)nc2n(C2CCCC2)c1=O [Palbociclib] + CS(=O)(=O)CCNCc1ccc(-c2ccc3ncnc(Nc4ccc(OCc5cccc(F)c5)c(Cl)c4)c3c2)o1 [Lapatinib] (partner 2 µM)
How it was run: as §1

| Cell Line | relative viability ([1]; first compound 0.01 µM) | relative viability ([1]; first compound 0.3162 µM) | relative viability ([1]; first compound 1 µM) | relative viability ([2]; first compound 0.01 µM) | relative viability ([2]; first compound 0.03162 µM) | relative viability ([2]; first compound 0.1 µM) | relative viability ([2]; first compound 0.3162 µM) | relative viability ([2]; first compound 1 µM) | relative viability ([3]; first compound 0.01 µM) | relative viability ([3]; first compound 0.3162 µM) | relative viability ([3]; first compound 1 µM) | relative viability ([4]; first compound 0.01 µM) | relative viability ([4]; first compound 0.3162 µM) | relative viability ([4]; first compound 1 µM) | relative viability ([1]; first compound 0.1 µM) | relative viability ([3]; first compound 0.1 µM) | relative viability ([4]; first compound 0.1 µM) | relative viability ([1]; first compound 0.03162 µM) | relative viability ([3]; first compound 0.03162 µM) | relative viability ([4]; first compound 0.03162 µM) |
| --- | --- | --- | --- | --- | --- | --- | --- | --- | --- | --- | --- | --- | --- | --- | --- | --- | --- | --- | --- | --- |
| CAL-12T | 0.471 | 0.263 | 0.281 | 1.14 | 1.1 | 0.924 | 0.672 | 0.637 | 1.04 | 0.674 | 0.405 | 0.759 | 0.367 | 0.334 | – | – | – | – | – | – |
| NCI-H23 | 0.575 | 0.36 | 0.205 | 0.596 | 0.694 | 0.492 | 0.67 | 0.443 | 1.12 | 0.703 | 0.553 | 1 | 0.804 | 0.589 | 0.362 | 0.87 | 1.05 | – | – | – |
| A-427 | 0.703 | 0.447 | 0.347 | 0.96 | 0.879 | 0.779 | 0.633 | 0.497 | 0.933 | 0.832 | 0.546 | 0.965 | 0.895 | 0.648 | 0.592 | 0.827 | 1.03 | 0.648 | 0.877 | 0.735 |
| LOU-NH91 | 0.547 | 0.465 | 0.446 | 0.384 | 0.396 | 0.462 | 0.492 | 0.439 | 0.458 | 0.446 | 0.489 | 0.8 | 0.569 | 0.557 | 0.484 | 0.441 | 0.581 | 0.479 | 0.439 | 0.596 |
| NCI-H2023 | 0.2 | 0.15 | 0.111 | 0.203 | 0.188 | 0.169 | 0.174 | 0.142 | 0.96 | 0.654 | 0.391 | 0.728 | 0.55 | 0.353 | 0.151 | 0.705 | 0.545 | 0.151 | 0.279 | 0.165 |
